Measurements from patent US6703388B2, “Nitrogen-containing tricyclic compounds and drugs containing the same” (Eisai Co., Ltd., priority 1996, dated 2004).
Like-named read-outs stand apart in the source and are kept apart here.

What was measured:
[1] = test system: RBL-2H3 cells; test: Inhibition of serotonin liberation from IgE-sensitized RBL-2H3 cells after antigen stimulation; type: cell-based, rat; conditions: Rattus norvegicus; [3H]-serotonin release, IgE-sensitized RBL-2H3 cells, antigen stimulation; read-out: IC50 (μM) in serotonin liberation from RBL-2H3 cells
Text: IgE-sensitized RBL-2H3 cells (i.e., a cell line originating in rat cells) release and produce not only histamine and serotonin but also cytokines such as TNF α and prostaglandins which are inflammatory mediators after stimulation with IgE sepecific antibody. In this experimental system, inhibitory effects on various mediators release were examined by using serotonin as an indication.
The cells were beforehand labeled with [^3H]-labeled serotonin and, at the same time, sensitized with the IgE antibody. After incubating with the compounds of the present invention, the cells were stimulated with the specific antigen. Then the inhibitory activity of each compound was calculated from the amount of the [^3H]-labeled serotonin thus liberated into the medium and the amount of [^3H]-labeled serotonin liberated when no compound of the present invention was added.

[2] = test system: human basophils; test: Inhibition of mediator (histamine, peptide leukotriene) liberation from human basophils stimulated with mite antigen; type: cell-based; conditions: enzyme immunoassay
Method: 6 ml of 6% dextran (for separating leukocytes, having a high molecular weight) was added to 20 ml of heparinized blood. After stirring well, the resulting mixture was allowed to stand at 37° C. for 30 min and thus erythrocytes were precipitated. The upper layer was taken up and phosphate buffered saline (D-PBS) was added thereto followed by centrifugation at 185 g for 8 minutes to give a crude leukocyte fraction. These cells were subjected to hypotonic hematolysis and then suspended in D-PBS(+) containing 0.1%-BSA. The resulting suspension was used in the subsequent experiment as the leukocyte fraction containing basophils. 0.4 ml of this cell suspension was preliminarily heated to 37° C. for 5 min and then 0.05 ml of a specimen solution was added thereto followed by a pretreatment at 37° C. for 15 min. Next, 0.05 ml of a mite antigen solution was added thereto to induce an antigen-antibody reaction. After 10 min, the reaction was ceased by ice-cooling. Then the reaction mixture was centrifuged at 185 g for 10 min and histamine and peptide leukotrienes in the resulting supernatant were determined by using enzyme immunoassay kits. From the results of the assay, the activities of the acridone derivatives of inhibiting the liberation of histamine and peptide leukotriene were determined.

[3] = histamine, read-out: IC50 (μM) in mediator liberation from human basophils: histamine
[4] = peptide leukotriene, read-out: IC50 (μM) in mediator liberation from human basophils: leukotriene

Row | Compound | IC50 [1] | IC50 [2, 3] | IC50 [2, 4]
1 | Cc1ccc2c(c1C)N(CCCNCc1ccc(C#N)s1)c1ccccc1[S+]2[O-] (stereo not drawn) [Example 58] | 2 µM | 10 to 30 µM | 10 to 30 µM
2 | Cc1ccc2c(c1C)N(CCNCc1ccccc1OCCO)c1ccccc1[S+]2[O-] (stereo not drawn) [Example 157] | 1 µM | 30 to 100 µM | 10 to 30 µM
3 | Cc1ccc2c(c1C)N(CCCNCc1ccccc1N)c1ccccc1[S+]2[O-] (stereo not drawn) [Example 51] | 2 µM | 10 to 30 µM | 10 to 30 µM
4 | Cc1ccc2c(c1C)N(CCCNCc1ccccc1)c1cccc(Cl)c1[S+]2[O-] (stereo not drawn) [Example 82] | 2 µM | 3 to 10 µM | 10 to 30 µM
5 | Cc1ccc2c(c1C)N(CCCNCc1cccc(Br)c1O)c1ccccc1[S+]2[O-] (stereo not drawn) [Example 30] | 2 µM | 3 to 10 µM | < 3 µM
6 | Cc1ccc2c(c1C)N(CCCNCc1ccco1)c1ccccc1[S+]2[O-] (stereo not drawn) [Example 62] | 3 µM | 10 µM | 3 µM
7 | Cc1ccc2c(c1C)N(CCNCc1cc(Cl)cc(Cl)c1O)c1ccccc1[S+]2[O-] (stereo not drawn) [Example 146] | 3 µM | < 10 µM | < 10 µM
8 | Cc1ccc2c(c1C)N(CCCNCc1ccccc1O)c1ccccc1[S+]2[O-] (stereo not drawn) [Example 23] | 2 µM | 10 to 30 µM | 10 to 30 µM
9 | Cc1ccc2c(c1C)N(CCNCc1ccccc1CO)c1ccccc1[S+]2[O-] (stereo not drawn) [Example 156] | 3 µM | 10 µM | 10 µM
10 | Cc1ccc2c(c1C)N(CCCNCc1c(O)ccc(C)c1O)c1ccccc1[S+]2[O-] (stereo not drawn) [Example 37] | 2 µM | 10 to 30 µM | 3 to 10 µM
11 | COc1ccsc1CNCCCN1c2ccccc2[S+]([O-])c2ccc(C)c(C)c21 (stereo not drawn) [Example 66] | 0.5 µM | < 3 µM | < 3 µM
12 | CCOC(=O)CN(CCCN1c2ccccc2[S+]([O-])c2ccc(C)c(C)c21)Cc1ccccc1O (stereo not drawn) [Example 134] | 3 µM | 3 µM | 3 µM
13 | COc1csc(CNCCCN2c3ccccc3[S+]([O-])c3ccc(C)c(C)c32)c1 (stereo not drawn) [Example 73] | 2 µM | 3 to 10 µM | 3 to 10 µM
14 | Cc1ccc2c(c1)N(CCCN(C)Cc1ccccc1O)c1c(ccc(C)c1C)[S+]2[O-] (stereo not drawn) [Example 188] | 1 µM | 10 µM | 3 to 10 µM
15 | Cc1ccc2c(c1C)N(CCCCNCc1ccccc1O)c1ccccc1[S+]2[O-] (stereo not drawn) [Example 140] | 3 µM | 10 µM | 3 to 10 µM
16 | Cc1ccc2c(c1C)N(CCCNCc1cccc(N(C)C)c1)c1ccccc1[S+]2[O-] (stereo not drawn) [Example 49] | 2 µM | 10 µM | 3 to 10 µM
17 | COc1cccc(OC)c1CN(C)CCCN1c2ccccc2[S+]([O-])c2ccc(C)c(C)c21 (stereo not drawn) [Example 170] | 0.5 µM | 10 to 30 µM | 3 µM
18 | Cc1ccc2c(c1C)N(CCCNCc1cccc(C)c1O)c1ccccc1[S+]2[O-] (stereo not drawn) [Example 26] | 2 µM | < 10 µM | < 10 µM
19 | COc1cccc(CN(C)CCN2c3ccccc3[S+]([O-])c3ccc(C)c(C)c32)c1O (stereo not drawn) [Example 180] | 2 µM | 30 to 100 µM | 3 to 10 µM
20 | Cc1cc(C)c2c(c1C)N(CCCNCc1ccccc1)c1ccccc1[S+]2[O-] (stereo not drawn) [Example 100] | 2 µM | 3 µM | 10 µM
21 | COc1cccc(CN(C)CCCN2c3ccccc3[S+]([O-])c3ccc(C)c(C)c32)c1O (stereo not drawn) [Example 169] | 0.5 µM | 30 to 100 µM | 10 to 30 µM

Row | Compound | IC50 [1] | IC50 [2, 3] | IC50 [2, 4]
22 | Cc1ccc2c(c1C)N(CCCN(C)Cc1cccc(O)c1)c1ccccc1[S+]2[O-] (stereo not drawn) [Example 166] | 0.5 µM | 10 to 30 µM | 3 to 10 µM
23 | COCOc1c(CNCCCN2c3ccccc3[S+]([O-])c3ccc(C)c(C)c32)cccc1OC(C)C (stereo not drawn) [Example 47] | 0.5 µM | 3 to 10 µM | 3 µM
24 | Cc1ccc2c(c1C)N(CCCNCc1c(O)cccc1O)c1ccccc1[S+]2[O-] (stereo not drawn) [Example 36] | 1 µM | 3 to 10 µM | 3 to 10 µM
25 | Cc1ccc2c(c1C)N(CCCNCc1ccc(CO)o1)c1ccccc1[S+]2[O-] (stereo not drawn) [Example 65] | 0.5 µM | 30 to 100 µM | 10 to 30 µM
26 | COc1cc(C)c(O)c(CN(C)CCCN2c3ccccc3[S+]([O-])c3ccc(C)c(C)c32)c1O (stereo not drawn) [Example 175] | 0.8 µM | 30 to 100 µM | 10 µM
27 | Cc1ccc2c(c1C)N(CCCN(CCN(C)C)Cc1ccccc1)c1ccccc1[S+]2[O-] (stereo not drawn) [Example 125] | 2 µM | < 10 µM | < 10 µM
28 | COc1ccc2c(c1)N(CCCN(C)Cc1ccccc1O)c1c(ccc(C)c1C)[S+]2[O-] (stereo not drawn) [Example 189] | 0.8 µM | 3 to 10 µM | 3 to 10 µM
29 | Cc1ccc2c(c1C)N(CCCN(C)Cc1c(O)ccc(C)c1O)c1ccccc1[S+]2[O-] (stereo not drawn) [Example 174] | 0.5 µM | 10 to 30 µM | 10 µM
30 | COc1cccc(CNCCN2c3ccccc3[S+]([O-])c3ccc(C)c(C)c32)c1O (stereo not drawn) [Example 154] | 6 µM | 10 to 30 µM | < 10 µM
31 | Cc1ccc2c(c1C)N(CCCN(Cc1ccccc1O)CC(O)CO)c1ccccc1[S+]2[O-] (stereo not drawn) [Example 137] | 1 µM | 10 to 30 µM | 3 µM
32 | COc1cccc(OC)c1CNCCCN1c2ccccc2[S+]([O-])c2ccc(C)c(C)c21 (stereo not drawn) [Example 45] | 1 µM | 3 to 10 µM | 3 µM
33 | Cc1ccc2c(c1C)N(Cc1cccc(CN3CCN(Cc4ccccc4)CC3)n1)c1ccccc1[S+]2[O-] (stereo not drawn) [Example 122] | 3 µM | 10 to 30 µM | < 10 µM
34 | Cc1ccc2c(c1C)N(CCCNCc1cccc3c1OCO3)c1ccccc1[S+]2[O-] (stereo not drawn) [Example 54] | 1 µM | 10 µM | 3 to 10 µM
35 | Cc1ccc2c(c1C)N(CCCNCc1cccc(OC(C)C)c1O)c1ccccc1[S+]2[O-] (stereo not drawn) [Example 28] | 0.8 µM | 10 to 30 µM | 3 µM
36 | Cc1ccc2c(c1C)N(CCCNCc1[nH]cnc1-c1ccccc1)c1ccccc1[S+]2[O-] (stereo not drawn) [Example 69] | 1 µM | 10 µM | 3 to 10 µM
37 | Cc1ccc2c(c1C)N(CCN(CCO)Cc1ccccc1)c1ccccc1[S+]2[O-] (stereo not drawn) [Example 193] | 2 µM | 30 µM | 10 µM
38 | Cc1ccc2c(c1C)N(CCCNCc1cccc(Cl)c1O)c1ccccc1[S+]2[O-] (stereo not drawn) [Example 29] | 0.8 µM | 10 to 30 µM | 3 to 10 µM
39 | Cc1ccc2c(c1C)N(CCCN(C)Cc1cccc(C)c1O)c1ccccc1[S+]2[O-] (stereo not drawn) [Example 168] | 2 µM | < 10 µM | < 10 µM
40 | COc1ccsc1CNCCCN1c2cc(Cl)ccc2[S+]([O-])c2ccc(C)c(C)c21 (stereo not drawn) [Example 85] | 3 µM | 3 µM | 10 to 30 µM
41 | Cc1ccc2c(c1C)N(CCCNCc1cc(O)ccc1O)c1ccccc1[S+]2[O-] (stereo not drawn) [Example 33] | 1 µM | 10 to 30 µM | 10 µM
